Laboratory results reported in patent publication US20090233910A1, “Npy antagonists, preparation and uses” (CEREP, priority 2005, published 2009).
Marks after values point to notes of the source that are not given here.

How the values were obtained:
[1] = molecular target: T1, NPY Y1 receptor (Homo sapiens, UniProt P25929); assay: cAMP measurement test in SK-N-MC cells (shift of NPY dose-effect curves, forskoline-stimulated); type: cell-based; details: Schild analysis vs NPY, read-out: pA2 Y1 (converted)
T1 construct: host or cells: SK-N-MC cells (whole-cell suspension)
T1 sequence (P25929 1-384): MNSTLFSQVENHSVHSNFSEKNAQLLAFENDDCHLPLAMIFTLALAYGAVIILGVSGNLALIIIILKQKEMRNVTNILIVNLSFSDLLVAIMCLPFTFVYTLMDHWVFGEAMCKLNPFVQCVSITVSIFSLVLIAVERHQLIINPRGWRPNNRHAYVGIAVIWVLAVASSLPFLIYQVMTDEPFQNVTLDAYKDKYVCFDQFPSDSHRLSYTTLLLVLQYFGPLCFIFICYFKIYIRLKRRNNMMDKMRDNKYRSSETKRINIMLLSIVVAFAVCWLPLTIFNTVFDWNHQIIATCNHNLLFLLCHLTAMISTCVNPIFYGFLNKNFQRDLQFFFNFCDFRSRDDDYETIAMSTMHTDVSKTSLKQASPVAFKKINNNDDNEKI
Experimental: The SK-N-MC cells are cultured in 96-well plates. After aspirating the culture medium, the cells are washed with a phosphate buffer pH 7.4 (Invitrogen ref. 14190-094), then lifted with a Versene solution (Invitrogen, ref 15040-033). The cells are centrifuged at 500×g for 10 minutes at 4° C. They are resuspended in a stimulation buffer containing isobutyl-methyl-xanthine in sufficient concentration to inhibit the phosphodiesterases (Flashplate kit, Perkin Elmer). The tested compounds are added 10 minutes before depositing the NPY (Bachem, H3322) in variable concentration, then the 300 nM forskoline (Sigma, F6886). The cells are in cubated 1 hour at ambient temperature to allow cAMP production whose levels are measured using the Flashplate method after 2 hours incubation with the cAMP tracer [^125I]. The results are expressed in pA2 form observing the displacement of NPY dose-effect curves in the absence and presence of increasing concentrations of test compound [Schild, 1949, pAx and competitive drug antagonism, Br. J. Pharmacol., 4, 277-280].

[2] = molecular target: T1, NPY Y1 receptor; assay: Binding test to the NPY Y1 receptor ([125I]-PYY, SK-N-MC cell suspension); details: SK-N-MC cells, 25 pM [125I]-PYY
Experimental: The SK-N-MC cells (ATCC HBT10) are cultured at 37° C. in MEM medium (minimum essential medium) free of phenol red (Invitrogen ref. 04194565M) containing 10% foetal calf serum (Invitrogen ref. 10270-106), 1% non-essential aminoacids (Invitrogen ref. 11140-035), 1% sodium pyruvate (Invitrogen ref. 11360-039), 1% glutamine (Invitrogen ref. 25030-032), 100 IU/ml of penicillin and 100 μg/ml of streptomycin (Invitrogen ref. 15140-122) in a humid atmosphere containing 5% CO2.
After aspirating the culture medium, the cells are washed with a phosphate buffer pH 7.4 (Invitrogen ref. 14190-094), then lifted with a Versene solution (Invitrogen, ref 15040-033). The cells are centrifuged at 500×g for 10 minutes at 4° C. then resuspended in a freeze buffer pH 7.4 containing 50 mM HEPES (N-2-hydroxyethylpiperazine-N′-2-ethanesulfonic acid), 145 mM sodium chloride, 2.6 mM calcium chloride, 1 mM magnesium chloride, 10 mM glucose, and 1 mg/ml bovine albumin. The cell suspension is aliquoted into twenty million cells per milliliter of buffer and stored at −70° C.
The cell suspension is incubated 2 hours at 37° C. in an incubation buffer pH 7.4 containing 50 mM HEPES, 2.5 mM calcium chloride, 1 mM magnesium chloride, 0.025% sodium azide, 1 mg/ml bovine albumin and 25 pM [^125I]-PYY (Perkin Elmer, NEX341). The reaction is halted by filtering through a GF/B filter pre-treated with 0.3% PEI, and washed three times with 1 ml of 50 mM TRIS buffer [tris(hydroxymethyl)aminomethane]/HCl, pH 7.4. The radioactivity deposited on the filter is measured by liquid scintillation count (TopCount, Packard). Non-specific binding is determined in the presence of 1 μM NPY (Bachem, H3322). Results are expressed as IC50 values in nM calculated by non-linear regression with 4 parameters.

[3] = system: fasting mice; assay: Food intake by fasting mice; type: in vivo; details: fasting male OF1 mice, 30 mg/kg ip
Experimental: The day before the experiment at 16 h, male OF1 mice (Charles River, France) with body weight varying between 20 and 25 g, are left to fast in individual cages with unlimited drink water. On the day of the experiment, at 9 h30±15 min, a control batch of 10 mice was given the solvent (5% DMSO, Merck, 1.02931.1000, 5% cremophor EL, Sigma C-5135, physiological saline solution to complete to volume) via intra peritoneal route or per os in a volume of 10 ml/kg, and the other batches of 10 mice were given the products to be tested dissolved in the solvent (10 or 30 mg/kg in a volume of 10 ml/kg ip ou po). Individual feed troughs filled with food (A04, UAR, France) were weighed then placed in the cages, exactly 30 min or 60.min after treating the mice ip or per os, respectively. The feed troughs were then weighed 1 h, 2 h, 3 h, 4 h and when applicable 6 h and 24 h after placing the feed troughs in the cages. Food consumptions are expressed in grams, as a mean±standard error (S.E.M). (n=10). Statistical analysis used ANOVA followed by Dunnett's multiple comparison test. The level of significance is obtained for p<0.05.

Compound | Kb [1] | IC50 [2] | Accumulated inhibition of food intake after ip administering of 30 mg/kg, 0-1 h ([3]; 0-1 h) | Accumulated inhibition of food intake after ip administering of 30 mg/kg, 0-2 h ([3]; 0-2 h) | Accumulated inhibition of food intake after ip administering of 30 mg/kg, 0-3 h ([3]; 0-3 h) | Accumulated inhibition of food intake after ip administering of 30 mg/kg, 0-4 h ([3]; 0-4 h)
CCC(CC)NC(=O)Nc1ccc(Oc2cnc(NC(=O)c3ccc(OC4CCN(C(C)C)CC4)cc3)s2)c(OC)c1 [Example 2, N-(5-{4-[3-(1-Ethyl-propyl)-ureido]-2-methoxy-phenoxy}-thiazol-2-yl)-4-(1-isopropyl-piperidin-4-yloxy)-benzamide] | 10 nM | 15 nM |  |  |  | 
CCOc1cc(NC(=O)NC(CC)CC)ccc1Oc1ccc(NC(=O)c2ccc(O[C@H]3C[C@H]4CC[C@@H](C3)N4C)cc2)cc1 [Example 40, N-(4-{2-Ethoxy-4-[3-(1-ethyl-propyl)-ureido]-phenoxy}-phenyl)-4-(8-methyl-8-aza-bicyclo[3.2.1]oct-(3-endo)-yloxy)-benzamide] | 2.24 nM | 1.7 nM |  |  |  | 
CCCCN1CCC(Oc2ccc(C(=O)Nc3ccc(Oc4cc(F)c(NC(=O)NC(CC)CC)cc4OC)cc3)cc2C)CC1 [Example 312, 4-(1-Butyl-piperidin-4-yloxy)-N-(4-{4-[3-(1-ethyl-propyl)-ureido]-5-fluoro-2-methoxy-phenoxy}-phenyl)-3-methyl-benzamide] |  |  | 42%* | 21% | 33%** | 27%*
